{"source": "patent US20080103127A1", "about": "“METHODS FOR TREATING DISRUPTIVE BEHAVIOR DISORDERS” (priority 2006, published 2008)", "system": "general behavior of male mice", "assay": "General behavior of male mice by visual observation using a checklist of behaviors", "format": "in vivo", "conditions": "for Number of Mice Affected: Decreased Open Field Activity / Number of Mice Affected: Decreased Startle Reflex / Number of Mice Affected: Extensor Limb Tone (hind limb) / Number of Mice Affected: Impaired Horizontal Screen Performance / Number of Mice Affected: Impaired Visual Placing Reflex / Number of Mice Affected: Locomotor Ataxia / Number of Mice Affected: Loss of Corneal Reflex / Number of Mice Affected: Loss of Pinnal Reflex / Number of Mice Affected: Loss of Righting Reflex / Number of Mice Affected: Passive Response to Handling / Number of Mice Affected: Reduced Skin Plasticity / Number of Mice Affected: Soft Body Tone / Number of Mice Affected: Tail Pinch Response, Absent: N = 3/group", "method": "The effects of test compound on general behavior were evaluated by visual observation using a checklist of behaviors.", "data": [{"smiles": "NC(=O)OC[C@@H](O)c1ccccc1Cl", "note": "[COMPOUND #7, carisbamate]", "values": [{"measurement": "Number of Mice Affected: Decreased Open Field Activity", "setting": "40 mg/kg p.o., 1 h", "result": 0}, {"measurement": "Number of Mice Affected: Decreased Startle Reflex", "setting": "40 mg/kg p.o., 1 h", "result": 0}, {"measurement": "Number of Mice Affected: Extensor Limb Tone (hind limb)", "setting": "40 mg/kg p.o., 1 h", "result": 0}, {"measurement": "Number of Mice Affected: Impaired Horizontal Screen Performance", "setting": "40 mg/kg p.o., 1 h", "result": 0}, {"measurement": "Number of Mice Affected: Impaired Visual Placing Reflex", "setting": "40 mg/kg p.o., 1 h", "result": 0}, {"measurement": "Number of Mice Affected: Locomotor Ataxia", "setting": "40 mg/kg p.o., 1 h", "result": 0}, {"measurement": "Number of Mice Affected: Loss of Corneal Reflex", "setting": "40 mg/kg p.o., 1 h", "result": 0}, {"measurement": "Number of Mice Affected: Loss of Pinnal Reflex", "setting": "40 mg/kg p.o., 1 h", "result": 0}, {"measurement": "Number of Mice Affected: Loss of Righting Reflex", "setting": "40 mg/kg p.o., 1 h", "result": 0}, {"measurement": "Number of Mice Affected: Passive Response to Handling", "setting": "40 mg/kg p.o., 1 h", "result": 0}, {"measurement": "Number of Mice Affected: Reduced Skin Plasticity", "setting": "40 mg/kg p.o., 1 h", "result": 0}, {"measurement": "Number of Mice Affected: Soft Body Tone", "setting": "40 mg/kg p.o., 1 h", "result": 0}, {"measurement": "Number of Mice Affected: Tail Pinch Response, Absent", "setting": "40 mg/kg p.o., 1 h", "result": 0}, {"measurement": "Number of Mice Affected: Decreased Open Field Activity", "setting": "40 mg/kg p.o., 4 h", "result": 0}, {"measurement": "Number of Mice Affected: Decreased Startle Reflex", "setting": "40 mg/kg p.o., 4 h", "result": 0}, {"measurement": "Number of Mice Affected: Extensor Limb Tone (hind limb)", "setting": "40 mg/kg p.o., 4 h", "result": 0}, {"measurement": "Number of Mice Affected: Impaired Horizontal Screen Performance", "setting": "40 mg/kg p.o., 4 h", "result": 0}, {"measurement": "Number of Mice Affected: Impaired Visual Placing Reflex", "setting": "40 mg/kg p.o., 4 h", "result": 0}, {"measurement": "Number of Mice Affected: Locomotor Ataxia", "setting": "40 mg/kg p.o., 4 h", "result": 0}, {"measurement": "Number of Mice Affected: Loss of Corneal Reflex", "setting": "40 mg/kg p.o., 4 h", "result": 0}, {"measurement": "Number of Mice Affected: Loss of Pinnal Reflex", "setting": "40 mg/kg p.o., 4 h", "result": 0}, {"measurement": "Number of Mice Affected: Loss of Righting Reflex", "setting": "40 mg/kg p.o., 4 h", "result": 0}, {"measurement": "Number of Mice Affected: Passive Response to Handling", "setting": "40 mg/kg p.o., 4 h", "result": 0}, {"measurement": "Number of Mice Affected: Reduced Skin Plasticity", "setting": "40 mg/kg p.o., 4 h", "result": 0}, {"measurement": "Number of Mice Affected: Soft Body Tone", "setting": "40 mg/kg p.o., 4 h", "result": 0}, {"measurement": "Number of Mice Affected: Tail Pinch Response, Absent", "setting": "40 mg/kg p.o., 4 h", "result": 0}, {"measurement": "Number of Mice Affected: Decreased Open Field Activity", "setting": "100 mg/kg p.o., 1 h", "result": 0}, {"measurement": "Number of Mice Affected: Decreased Startle Reflex", "setting": "100 mg/kg p.o., 1 h", "result": 0}, {"measurement": "Number of Mice Affected: Extensor Limb Tone (hind limb)", "setting": "100 mg/kg p.o., 1 h", "result": 0}, {"measurement": "Number of Mice Affected: Impaired Horizontal Screen Performance", "setting": "100 mg/kg p.o., 1 h", "result": 0}, {"measurement": "Number of Mice Affected: Impaired Visual Placing Reflex", "setting": "100 mg/kg p.o., 1 h", "result": 0}, {"measurement": "Number of Mice Affected: Locomotor Ataxia", "setting": "100 mg/kg p.o., 1 h", "result": 0}, {"measurement": "Number of Mice Affected: Loss of Corneal Reflex", "setting": "100 mg/kg p.o., 1 h", "result": 0}, {"measurement": "Number of Mice Affected: Loss of Pinnal Reflex", "setting": "100 mg/kg p.o., 1 h", "result": 0}, {"measurement": "Number of Mice Affected: Loss of Righting Reflex", "setting": "100 mg/kg p.o., 1 h", "result": 0}, {"measurement": "Number of Mice Affected: Passive Response to Handling", "setting": "100 mg/kg p.o., 1 h", "result": 0}, {"measurement": "Number of Mice Affected: Reduced Skin Plasticity", "setting": "100 mg/kg p.o., 1 h", "result": 0}, {"measurement": "Number of Mice Affected: Soft Body Tone", "setting": "100 mg/kg p.o., 1 h", "result": 0}, {"measurement": "Number of Mice Affected: Tail Pinch Response, Absent", "setting": "100 mg/kg p.o., 1 h", "result": 0}, {"measurement": "Number of Mice Affected: Decreased Open Field Activity", "setting": "100 mg/kg p.o., 4 h", "result": 0}, {"measurement": "Number of Mice Affected: Decreased Startle Reflex", "setting": "100 mg/kg p.o., 4 h", "result": 0}, {"measurement": "Number of Mice Affected: Extensor Limb Tone (hind limb)", "setting": "100 mg/kg p.o., 4 h", "result": 0}, {"measurement": "Number of Mice Affected: Impaired Horizontal Screen Performance", "setting": "100 mg/kg p.o., 4 h", "result": 0}, {"measurement": "Number of Mice Affected: Impaired Visual Placing Reflex", "setting": "100 mg/kg p.o., 4 h", "result": 0}, {"measurement": "Number of Mice Affected: Locomotor Ataxia", "setting": "100 mg/kg p.o., 4 h", "result": 0}, {"measurement": "Number of Mice Affected: Loss of Corneal Reflex", "setting": "100 mg/kg p.o., 4 h", "result": 0}, {"measurement": "Number of Mice Affected: Loss of Pinnal Reflex", "setting": "100 mg/kg p.o., 4 h", "result": 0}, {"measurement": "Number of Mice Affected: Loss of Righting Reflex", "setting": "100 mg/kg p.o., 4 h", "result": 0}, {"measurement": "Number of Mice Affected: Passive Response to Handling", "setting": "100 mg/kg p.o., 4 h", "result": 0}, {"measurement": "Number of Mice Affected: Reduced Skin Plasticity", "setting": "100 mg/kg p.o., 4 h", "result": 0}, {"measurement": "Number of Mice Affected: Soft Body Tone", "setting": "100 mg/kg p.o., 4 h", "result": 0}, {"measurement": "Number of Mice Affected: Tail Pinch Response, Absent", "setting": "100 mg/kg p.o., 4 h", "result": 0}, {"measurement": "effect on general behavior in mice", "setting": "300 mg/kg p.o.", "result": "produced sedation"}, {"measurement": "Number of Mice Affected: Decreased Open Field Activity", "setting": "300 mg/kg p.o., 1 h", "result": 3}, {"measurement": "Number of Mice Affected: Decreased Startle Reflex", "setting": "300 mg/kg p.o., 1 h", "result": 3}, {"measurement": "Number of Mice Affected: Extensor Limb Tone (hind limb)", "setting": "300 mg/kg p.o., 1 h", "result": 3}, {"measurement": "Number of Mice Affected: Impaired Horizontal Screen Performance", "setting": "300 mg/kg p.o., 1 h", "result": 3}, {"measurement": "Number of Mice Affected: Impaired Visual Placing Reflex", "setting": "300 mg/kg p.o., 1 h", "result": 3}, {"measurement": "Number of Mice Affected: Locomotor Ataxia", "setting": "300 mg/kg p.o., 1 h", "result": 0}, {"measurement": "Number of Mice Affected: Loss of Corneal Reflex", "setting": "300 mg/kg p.o., 1 h", "result": 3}, {"measurement": "Number of Mice Affected: Loss of Pinnal Reflex", "setting": "300 mg/kg p.o., 1 h", "result": 3}, {"measurement": "Number of Mice Affected: Loss of Righting Reflex", "setting": "300 mg/kg p.o., 1 h", "result": 3}, {"measurement": "Number of Mice Affected: Passive Response to Handling", "setting": "300 mg/kg p.o., 1 h", "result": 3}, {"measurement": "Number of Mice Affected: Reduced Skin Plasticity", "setting": "300 mg/kg p.o., 1 h", "result": 3}, {"measurement": "Number of Mice Affected: Soft Body Tone", "setting": "300 mg/kg p.o., 1 h", "result": 3}, {"measurement": "Number of Mice Affected: Tail Pinch Response, Absent", "setting": "300 mg/kg p.o., 1 h", "result": 3}, {"measurement": "Number of Mice Affected: Decreased Open Field Activity", "setting": "300 mg/kg p.o., 4 h", "result": 2}, {"measurement": "Number of Mice Affected: Decreased Startle Reflex", "setting": "300 mg/kg p.o., 4 h", "result": 0}, {"measurement": "Number of Mice Affected: Extensor Limb Tone (hind limb)", "setting": "300 mg/kg p.o., 4 h", "result": 2}, {"measurement": "Number of Mice Affected: Impaired Horizontal Screen Performance", "setting": "300 mg/kg p.o., 4 h", "result": 2}, {"measurement": "Number of Mice Affected: Impaired Visual Placing Reflex", "setting": "300 mg/kg p.o., 4 h", "result": 0}, {"measurement": "Number of Mice Affected: Locomotor Ataxia", "setting": "300 mg/kg p.o., 4 h", "result": 2}, {"measurement": "Number of Mice Affected: Loss of Corneal Reflex", "setting": "300 mg/kg p.o., 4 h", "result": 0}, {"measurement": "Number of Mice Affected: Loss of Pinnal Reflex", "setting": "300 mg/kg p.o., 4 h", "result": 0}, {"measurement": "Number of Mice Affected: Loss of Righting Reflex", "setting": "300 mg/kg p.o., 4 h", "result": 0}, {"measurement": "Number of Mice Affected: Passive Response to Handling", "setting": "300 mg/kg p.o., 4 h", "result": 0}, {"measurement": "Number of Mice Affected: Reduced Skin Plasticity", "setting": "300 mg/kg p.o., 4 h", "result": 0}, {"measurement": "Number of Mice Affected: Soft Body Tone", "setting": "300 mg/kg p.o., 4 h", "result": 2}, {"measurement": "Number of Mice Affected: Tail Pinch Response, Absent", "setting": "300 mg/kg p.o., 4 h", "result": 0}, {"measurement": "behavioral or physical signs in mice", "setting": "doses up to 100 mg/kg p.o.", "result": "No behavioral or physical signs were observed"}]}]}
